One data set concerns the target T1, CYP1A2 (Homo sapiens, UniProt P05177).
T1 sequence (P05177 whole entry): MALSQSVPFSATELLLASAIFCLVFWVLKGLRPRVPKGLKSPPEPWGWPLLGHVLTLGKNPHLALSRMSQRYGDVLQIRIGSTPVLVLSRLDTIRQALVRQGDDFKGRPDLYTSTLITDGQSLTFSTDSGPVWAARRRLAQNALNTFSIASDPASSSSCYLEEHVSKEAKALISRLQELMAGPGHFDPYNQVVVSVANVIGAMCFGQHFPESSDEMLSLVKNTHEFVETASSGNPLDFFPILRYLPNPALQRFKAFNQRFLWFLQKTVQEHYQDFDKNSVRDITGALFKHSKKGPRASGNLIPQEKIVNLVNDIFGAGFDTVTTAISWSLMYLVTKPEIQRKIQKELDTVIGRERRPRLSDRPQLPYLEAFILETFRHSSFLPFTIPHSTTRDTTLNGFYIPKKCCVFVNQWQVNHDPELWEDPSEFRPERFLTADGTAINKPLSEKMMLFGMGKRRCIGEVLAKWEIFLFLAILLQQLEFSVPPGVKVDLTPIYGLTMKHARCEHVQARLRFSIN
In words: Inhibition of CYP1A2 in human liver microsomes at 10 uM after 20 mins. It counts as ADME. For orientation: Liver microsomes are vesicles of endoplasmic reticulum, rich in cytochrome P450 enzymes.

In data set [1] the target is T2, Lysine-specific demethylase 6B (Homo sapiens, UniProt O15054).
Description: Inhibition of JMJD3 (unknown origin) using biotinylated H3K27me3 peptide as substrate after 1 hr by AlphaLISA assay
The next data set addresses CYP2C19 (Homo sapiens, UniProt P33261). Briefly: Inhibition of CYP2C19 in human liver microsomes at 10 uM after 20 mins. It counts as ADME.
Data set [2] can be described thus: Half life in human liver microsomes at 1 uM by LC/MS/MS analysis. It counts as ADME.
The nature of data set [3]: Intrinsic clearance in human liver microsomes at 1 uM up to 30 mins by LC/MS/MS analysis. The data set is classed as ADME. As to conditions: read-out: CLH.
A further data set deals with CYP2D6 (Homo sapiens, UniProt P10635). Briefly: Inhibition of CYP2D6 in human liver microsomes at 10 uM after 20 mins. The data set is classed as ADME.
In another data set the target is CYP3A4 (Homo sapiens, UniProt P08684). Briefly: in vitro. As to conditions: liver microsomes.
The next data set addresses CYP2C9 (Homo sapiens, UniProt P11712). Briefly: Inhibition of CYP2C9 in human liver microsomes at 10 uM after 20 mins. The data set is classed as ADME.
Data set [4] relates to RAW264.7. Briefly: Inhibition of LPS-induced TNFalpha production in mouse RAW264.7 cells 0.82 uM after 24 hrs by ELISA. It counts as functional, cell-based. A general note: ELISA stands for enzyme-linked immunosorbent assay.
Data set [5] concerns RAW264.7. In words: Inhibition of LPS-induced TNFalpha production in mouse RAW264.7 cells after 24 hrs by ELISA. The data set is classed as functional, cell-based.
For data set [6], the target named is T2, Lysine-specific demethylase 6B. Briefly: Inhibition of JMJD3 (unknown origin) using biotinylated H3K27me3 peptide as substrate at 10 uM after 1 hr by AlphaLISA assay. In general terms: Bead proximity is the source of the signal in Alpha formats.

These results are taken from ChEMBL document CHEMBL3751830, “Design and discovery of new pyrimidine coupled nitrogen aromatic rings as chelating groups of JMJD3 inhibitors” (Bioorg Med Chem Lett, 2016).

Activity calls are given as the source filed them. The calls are words filed in the database; no cut-off is given here. Some results are limits rather than exact numbers.

Sequence of CYP3A4 (P08684 whole entry): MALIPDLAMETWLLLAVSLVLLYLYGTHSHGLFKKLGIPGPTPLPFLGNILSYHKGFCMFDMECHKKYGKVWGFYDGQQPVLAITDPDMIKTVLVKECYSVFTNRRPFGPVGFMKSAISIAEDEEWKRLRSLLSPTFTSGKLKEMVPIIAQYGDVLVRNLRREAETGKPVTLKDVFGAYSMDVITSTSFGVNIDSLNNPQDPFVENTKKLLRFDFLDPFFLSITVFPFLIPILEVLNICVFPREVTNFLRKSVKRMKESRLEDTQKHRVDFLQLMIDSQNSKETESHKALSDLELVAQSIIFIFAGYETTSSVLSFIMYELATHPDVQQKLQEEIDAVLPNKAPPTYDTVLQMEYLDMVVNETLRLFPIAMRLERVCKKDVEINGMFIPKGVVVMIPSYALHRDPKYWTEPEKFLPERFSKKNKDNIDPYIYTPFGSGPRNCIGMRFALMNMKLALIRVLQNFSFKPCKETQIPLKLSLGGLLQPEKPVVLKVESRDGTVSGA
Sequence of CYP2D6 (P10635 whole entry): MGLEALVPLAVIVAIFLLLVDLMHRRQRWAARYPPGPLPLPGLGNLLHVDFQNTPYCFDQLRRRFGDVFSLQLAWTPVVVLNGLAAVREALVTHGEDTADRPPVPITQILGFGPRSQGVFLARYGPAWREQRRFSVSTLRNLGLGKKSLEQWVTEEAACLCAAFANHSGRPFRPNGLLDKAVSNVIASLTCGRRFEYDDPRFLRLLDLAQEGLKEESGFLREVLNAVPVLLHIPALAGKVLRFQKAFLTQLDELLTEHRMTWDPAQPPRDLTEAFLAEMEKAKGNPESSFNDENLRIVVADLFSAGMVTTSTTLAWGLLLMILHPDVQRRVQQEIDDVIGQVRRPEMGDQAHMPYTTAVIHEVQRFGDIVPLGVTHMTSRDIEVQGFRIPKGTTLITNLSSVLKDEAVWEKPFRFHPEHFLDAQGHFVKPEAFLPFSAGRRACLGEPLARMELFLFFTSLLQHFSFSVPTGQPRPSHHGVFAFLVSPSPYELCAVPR
T2 sequence (O15054 whole entry): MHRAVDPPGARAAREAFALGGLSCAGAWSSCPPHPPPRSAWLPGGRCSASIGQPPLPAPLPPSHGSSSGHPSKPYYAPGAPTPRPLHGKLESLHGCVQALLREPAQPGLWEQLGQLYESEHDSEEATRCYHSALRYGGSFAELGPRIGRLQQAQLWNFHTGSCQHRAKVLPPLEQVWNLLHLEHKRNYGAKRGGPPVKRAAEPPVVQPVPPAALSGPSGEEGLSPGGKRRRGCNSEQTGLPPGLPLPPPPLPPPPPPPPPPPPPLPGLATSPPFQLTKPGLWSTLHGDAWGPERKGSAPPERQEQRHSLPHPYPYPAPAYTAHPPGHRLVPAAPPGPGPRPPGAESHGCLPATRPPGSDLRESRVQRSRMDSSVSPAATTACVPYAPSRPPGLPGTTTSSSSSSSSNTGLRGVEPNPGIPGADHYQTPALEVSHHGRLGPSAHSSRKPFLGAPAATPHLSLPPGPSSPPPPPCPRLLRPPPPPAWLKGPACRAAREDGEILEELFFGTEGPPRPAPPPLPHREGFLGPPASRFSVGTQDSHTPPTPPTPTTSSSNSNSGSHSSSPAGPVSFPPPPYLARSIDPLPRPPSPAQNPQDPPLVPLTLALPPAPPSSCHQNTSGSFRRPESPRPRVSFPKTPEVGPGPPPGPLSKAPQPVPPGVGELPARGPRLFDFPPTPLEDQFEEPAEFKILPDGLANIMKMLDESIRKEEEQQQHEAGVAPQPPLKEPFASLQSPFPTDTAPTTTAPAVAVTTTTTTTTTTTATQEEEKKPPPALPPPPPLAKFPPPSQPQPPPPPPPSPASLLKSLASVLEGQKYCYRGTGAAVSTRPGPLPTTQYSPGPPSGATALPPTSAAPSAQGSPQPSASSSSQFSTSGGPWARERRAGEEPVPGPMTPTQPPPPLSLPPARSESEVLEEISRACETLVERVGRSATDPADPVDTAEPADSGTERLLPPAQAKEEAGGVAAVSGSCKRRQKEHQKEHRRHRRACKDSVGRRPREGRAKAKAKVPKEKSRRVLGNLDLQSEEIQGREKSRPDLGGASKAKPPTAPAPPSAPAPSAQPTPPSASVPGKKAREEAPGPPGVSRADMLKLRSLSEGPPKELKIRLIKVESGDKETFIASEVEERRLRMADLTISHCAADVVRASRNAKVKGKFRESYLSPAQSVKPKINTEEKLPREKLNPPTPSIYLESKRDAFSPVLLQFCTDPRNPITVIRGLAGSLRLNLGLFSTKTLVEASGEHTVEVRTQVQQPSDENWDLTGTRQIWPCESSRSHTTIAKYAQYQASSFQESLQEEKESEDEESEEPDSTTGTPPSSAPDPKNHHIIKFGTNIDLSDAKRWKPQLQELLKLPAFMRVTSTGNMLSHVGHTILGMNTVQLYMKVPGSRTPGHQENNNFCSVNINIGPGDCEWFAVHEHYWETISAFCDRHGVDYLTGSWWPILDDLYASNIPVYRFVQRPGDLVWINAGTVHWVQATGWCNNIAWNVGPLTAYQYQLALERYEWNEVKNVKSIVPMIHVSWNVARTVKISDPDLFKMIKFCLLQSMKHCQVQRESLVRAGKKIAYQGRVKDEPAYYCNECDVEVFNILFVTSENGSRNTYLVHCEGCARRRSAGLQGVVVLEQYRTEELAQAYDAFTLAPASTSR
Sequence of CYP2C19 (P33261 whole entry): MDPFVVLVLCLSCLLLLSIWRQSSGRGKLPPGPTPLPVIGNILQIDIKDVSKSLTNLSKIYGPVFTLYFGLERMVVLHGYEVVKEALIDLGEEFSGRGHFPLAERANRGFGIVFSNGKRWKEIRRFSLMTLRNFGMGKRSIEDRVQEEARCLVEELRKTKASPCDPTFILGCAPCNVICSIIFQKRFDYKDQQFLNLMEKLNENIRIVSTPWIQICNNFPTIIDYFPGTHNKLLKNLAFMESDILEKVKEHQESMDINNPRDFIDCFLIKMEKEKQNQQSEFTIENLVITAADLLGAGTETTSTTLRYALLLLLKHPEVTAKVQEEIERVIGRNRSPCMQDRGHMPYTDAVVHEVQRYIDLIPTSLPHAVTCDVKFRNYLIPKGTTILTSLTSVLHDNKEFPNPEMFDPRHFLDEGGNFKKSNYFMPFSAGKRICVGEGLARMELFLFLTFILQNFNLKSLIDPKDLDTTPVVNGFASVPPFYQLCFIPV
Sequence of CYP2C9 (P11712 whole entry): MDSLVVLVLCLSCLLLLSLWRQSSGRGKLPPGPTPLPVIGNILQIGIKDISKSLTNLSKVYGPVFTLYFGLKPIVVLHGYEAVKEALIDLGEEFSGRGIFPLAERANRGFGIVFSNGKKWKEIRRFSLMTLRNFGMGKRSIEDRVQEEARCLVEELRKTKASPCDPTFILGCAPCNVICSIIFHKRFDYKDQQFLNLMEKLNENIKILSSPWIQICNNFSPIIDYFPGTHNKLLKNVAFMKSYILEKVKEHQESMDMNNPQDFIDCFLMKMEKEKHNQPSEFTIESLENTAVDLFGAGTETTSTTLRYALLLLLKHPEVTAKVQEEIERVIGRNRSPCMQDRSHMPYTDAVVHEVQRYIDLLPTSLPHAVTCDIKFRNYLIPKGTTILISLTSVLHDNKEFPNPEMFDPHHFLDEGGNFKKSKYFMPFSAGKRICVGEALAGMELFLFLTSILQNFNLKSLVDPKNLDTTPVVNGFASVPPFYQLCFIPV
Description for CYP3A4: Inhibition of CYP3A4 in human liver microsomes at 10 uM after 20 mins

By inhibition is commonly meant the change of the read-out against control, counted positive when it falls. The IC50 is the concentration at which inhibition is half-maximal. Higher therefore signals weaker potency in that assay. One may read the half-life as the time in which the quantity being followed falls by half. Read a low half-life as fast loss. On to `O=C(O)CCNc1nc(-c2nccs2)cc(N2CCc3ccccc3CC2)n1`, for which the inhibition at 20 min, 10 µM came to 9% on CYP1A2; 13% at CYP2C19; 8% at CYP2D6; 12% on CYP3A4; 9% against CYP2C9. For the same compound, in data set [1], the IC50 turned out to be 200 nM. Further, the half-life at 1 µM in data set [2] was determined as 4.44 h. The microsomal CLint at 1 µM in [3] turned out to be 5 µL/min/mg.

Compound `O=C(O)CCNc1nc(N2CCC(c3ccccc3)CC2)cc(-n2nccn2)n1` displayed an IC50 in data set [1] of 1200 nM.

For `CCOC(=O)CCNc1cc(N2CCc3ccccc3CC2)nc(-c2ccccn2)n1`, the inhibition result in the data set on RAW264.7 [4] and with RAW264.7 [5] was “Active” in each case.

For `COc1cc(CNc2cc(-c3nccs3)nc(NCCC(=O)O)n2)cc(OC)c1`, the inhibition in [6] was -8.7%.

Compound `O=C(O)CCNc1nc(N2CCc3ccccc3C2)cc(-n2cccn2)n1` yielded an IC50 in data set [1] of 490 nM.

For `CCOC(=O)CCNc1nc(N2CCc3ccccc3CC2)cc(-n2nccn2)n1`, the inhibition entry in the data set on RAW264.7 [4] was “Active”. The inhibition entry with RAW264.7 [5] is “Dose-dependent effect”.

As for `O=C(O)CCNc1cc(N2CCc3ccccc3CC2)nc(-c2ccccn2)n1`, the inhibition at 20 min, 10 µM was determined as 10% on CYP1A2, 16% against CYP2C19, 20% against CYP2D6 and 5% against CYP2C9. Besides, the half-life at 1 µM in [2] was found to be 8.25 h. Besides, in data set [3], the microsomal CLint at 1 µM came out at 3 µL/min/mg.

As to `O=C(O)CCNc1nc(NCc2cc(C(F)(F)F)cc(C(F)(F)F)c2)cc(-c2nccs2)n1`, the inhibition in data set [6] is 1%.

In the case of `O=C(O)CCNc1nc(N2CCc3ccccc3C2)cc(-n2nccn2)n1`, the midpoint of inhibition in [1], the IC50, lay at 1500 nM. This counts as single-digit micromolar.

Take `O=C(O)CCNc1nc(N2CCc3ccccc3CC2)cc(-n2nccn2)n1`: the inhibition at 20 min, 10 µM at CYP1A2 was 4%; against CYP2C19 it was 4%; against CYP2D6, 6%; at CYP3A4, 7%; against CYP2C9 it was 4%. Moreover, it took 270 nM to reach half-maximal inhibition in [1] (IC50). Further, the half-life at 1 µM in data set [2] was determined as 38.5 h. Also, in [3], the microsomal CLint at 1 µM is 1 µL/min/mg.

The compound `O=C(O)CCNc1nc(N2CCN(c3ccc(Cl)c(Cl)c3)CC2)cc(-n2nccn2)n1` returned an IC50 in data set [1] of 1400 nM.

On to `O=C(O)CCNc1nc(N2CCN(c3ccccn3)CC2)cc(-n2cc3ccccc3n2)n1`, for which the inhibition in data set [6] amounted to 54%.

On to `CC(=O)N1CCN(c2cc(-c3nccs3)nc(NCCC(=O)O)n2)CC1`, for which the inhibition in [6] worked out at 32.9%.

Take `CCOC(=O)CCNc1nc(N2CCc3ccccc3CC2)cc(-n2cccn2)n1`: the inhibition result in the data set on RAW264.7 [4] was “Active”. Also, the inhibition entry with RAW264.7 [5] is “Dose-dependent effect”.

Compound `COc1ccccc1N1CCN(c2cc(-n3cccn3)nc(NCCC(=O)O)n2)CC1` returned an IC50 in data set [1] greater than 20000 nM.

With `COc1ccccc1N1CCN(c2cc(-c3nccs3)nc(NCCC(=O)O)n2)CC1`, the IC50 in data set [1] turned out to be 2100 nM.

In [1], `O=C(O)CCNc1nc(-c2nccs2)cc(N2CCc3ccccc3C2)n1` registered an IC50 of 990 nM.

Turning to `Cc1ccccc1C1CCN(c2cc(-c3nccs3)nc(NCCC(=O)O)n2)CC1`, the inhibition in data set [6] was 87.5%.

As to `CC(C)NC(=O)CN1CCN(c2cc(-c3nccs3)nc(NCCC(=O)O)n2)CC1`, the inhibition in [6] was -5.1%.

As to `O=C(O)CCNc1nc(N2CCc3ccccc3C2)cc(-n2ccnn2)n1`, the midpoint of inhibition in data set [1], the IC50, lay at 1400 nM.

For `O=C(O)CCNc1nc(N2CCC(c3ccccc3)CC2)cc(-n2cc3ccccc3n2)n1`, in data set [6], the inhibition turned out to be 30%.

Regarding `O=C(O)CCNc1nc(N2CCN(c3ccc(Cl)c(Cl)c3)CC2)cc(-n2cccn2)n1`, the IC50 in data set [1] turned out to be 740 nM.

Consider `CC(C)(C)OC(=O)NC1CCN(c2cc(-c3nccs3)nc(NCCC(=O)O)n2)CC1`, for which, in [6], the inhibition is 9.8%.

Take `Cc1ccccc1CNc1cc(-c2nccs2)nc(NCCC(=O)O)n1`: in data set [6], the inhibition was -0.6%.

As to `O=C(O)CCNc1nc(N2CCC(c3ccccc3)CC2)cc(-n2ccnn2)n1`, in data set [1], inhibition was half-maximal at 2100 nM (IC50).

`O=C(O)CCNc1nc(N2CCN(c3ccc(F)cc3)CC2)cc(-n2nccn2)n1` returned an IC50 in data set [1] of 2600 nM.

For `O=C(O)CCNc1nc(-c2nccs2)cc(N2CCC(c3ccccc3)CC2)n1`, in data set [1], the half-inhibitory concentration (IC50) is 1200 nM.

In [1], `O=C(O)CCNc1nc(N2CCC(c3ccccc3)CC2)cc(-n2cccn2)n1` displayed an IC50 of 750 nM.

In turn, `O=C(O)CCNc1nc(N2CCc3ccccc3C2)cc(-n2cc3ccccc3n2)n1` yielded an IC50 in data set [1] of 6100 nM. Against the preceding compound, the IC50 is about 8.1-fold higher.

Consider `O=C(O)CCNc1nc(NC2CCN(Cc3ccccc3)CC2)cc(-c2nccs2)n1`, for which, in data set [6], the inhibition amounted to 10%.

`O=C(O)CCNc1nc(N2CCN(c3ccc(F)cc3)CC2)cc(-n2cc3ccccc3n2)n1`: in [1], the IC50 is 5800 nM.

`O=C(O)CCNc1nc(N2CCc3ccccc3CC2)cc(-n2ccnn2)n1`: the inhibition at 20 min, 10 µM came out at 1% against CYP1A2; 8% against CYP2C19; 6% on CYP2D6; 7% on CYP3A4; 1% on CYP2C9. In addition, in [1], the IC50 is 210 nM. Moreover, in data set [2], the half-life at 1 µM is greater than 11.6 h.

In data set [1], `O=C(O)CCNc1nc(-c2nccs2)cc(N2CCN(c3ccc(Cl)c(Cl)c3)CC2)n1` yielded an IC50 of 940 nM.

In data set [1], `O=C(O)CCNc1nc(-c2nccs2)cc(N2CCN(c3ccc(F)cc3)CC2)n1` returned an IC50 of 600 nM.

On to `O=C(O)CCNc1nc(NC2Cc3ccccc3C2)cc(-c2nccs2)n1`, for which the inhibition in [6] was 21.1%.

Take `COc1ccccc1N1CCN(c2cc(-n3nccn3)nc(NCCC(=O)O)n2)CC1`: the concentration for half-maximal inhibition (IC50) in data set [1] was greater than 20000 nM.

As for `CCOC(=O)CCNc1nc(N2CCc3ccccc3CC2)cc(-n2ccnn2)n1`, the inhibition result in the data set on RAW264.7 [4] and with RAW264.7 [5] was “Active” each time.

The compound `O=C(O)CCNc1nc(-c2nccs2)cc(N2CCN(c3ccccn3)CC2)n1` displayed a half-inhibitory concentration (IC50) in data set [1] of 900 nM. In other words, the sub-micromolar range.

In data set [1], `O=C(O)CCNc1nc(N2CCN(c3ccccn3)CC2)cc(-n2nccn2)n1` gave a half-inhibitory concentration (IC50) of 1300 nM.

As for `O=C(O)CCNc1nc(N2CCN(c3ccc(F)cc3)CC2)cc(-n2ccnn2)n1`, the IC50 in data set [1] was 10000 nM.

Take `O=C(O)CCNc1nc(N2CCN(c3ccccn3)CC2)cc(-n2cccn2)n1`: in data set [1], it took 1000 nM to reach half-maximal inhibition (IC50). Against the preceding compound, the IC50 is about 10-fold lower.

On to `O=C(O)CCNc1nc(N2CCN(c3ccc(Cl)c(Cl)c3)CC2)cc(-n2ccnn2)n1`, for which the inhibition in data set [6] worked out at 74%.

The compound `O=C(O)CCNc1nc(N2CCN(c3ccc(F)cc3)CC2)cc(-n2cccn2)n1` had an IC50 in [1] of 550 nM.

On to `O=C(O)CCNc1nc(N2CCc3ccccc3CC2)cc(-n2cccn2)n1`, for which the inhibition at 20 min, 10 µM on CYP1A2 was 5%; against CYP2C19 it was 3%; against CYP2D6 it was 5%; on CYP3A4, 3%; against CYP2C9, 5%. Also, the midpoint of inhibition in data set [1], the IC50, lay at 150 nM. Moreover, the half-life at 1 µM in [2] is greater than 11.6 h.

`O=C(O)CCNc1nc(N2CCc3ccccc3CC2)cc(-n2cc3ccccc3n2)n1`: the inhibition at 20 min, 10 µM at CYP1A2 was determined as 8%; against CYP2C19 it was 11%; against CYP2D6 it was 0%; on CYP3A4, 4%; on CYP2C9 it was 17%. Inhibition in data set [1] was half-maximal at 2200 nM (IC50). Moreover, in data set [2], the half-life at 1 µM came out at 4.28 h. In addition, in data set [3], the microsomal CLint at 1 µM stood at 5 µL/min/mg.

Turning to `O=C(O)CCNc1nc(N2CCN(c3ccc(Cl)c(Cl)c3)CC2)cc(-n2cc3ccccc3n2)n1`, the IC50 in data set [1] is greater than 100000 nM.

With `CCOC(=O)CCNc1nc(-c2nccs2)cc(N2CCc3ccccc3CC2)n1`, the inhibition entry with RAW264.7 [4] and in the data set with RAW264.7 [5] was “Active” throughout.

For the compound `CN(Cc1ccco1)c1cc(-c2nccs2)nc(NCCC(=O)O)n1`, the inhibition in data set [6] is 43.9%.

In the case of `O=C(O)CCNc1nc(-c2nccs2)cc(N2CCC(N3CCCC3)CC2)n1`, the inhibition in data set [6] was -8.4%.
